Here are results for two molecules from US11497717B2, “Nanoparticles for use for treating a neuronal disorder” (NANOBIOTIX S.A., priority 2017, dated 2022).

Test [1] has as its system amyloid beta 1-42 (Abeta 1-42)-induced model of Alzheimer's disease in frontal cortex cultures of mouse neurons. Briefly: Rescue of amyloid beta 1-42-induced functional effects on neuronal networks, phenotypic MEA screening (Example 8). In kind it is cell-based.
Test [2] concerns MPP^+-treated mouse ventral midbrain/cortex co-cultures. Briefly: Prevention/rescue efficacy on MPP+-induced neuronal networks, phenotypic MEA screening (Example 7). In kind it is cell-based. Here is the method:
The prevention/rescue efficacy of nanoparticles of the invention was tested on MPP^+-treated mouse ventral midbrain/cortex co-cultures, cultured on a 48-wells MEA for 3 weeks. This model represents an in vitro Parkinson's model for screening compounds, based on the functional rescue of dopaminergic neurons using challenged midbrain/cortex cultures growing on MEAs. Midbrain is a region of the brain including the substantia nigra which is part of the basal ganglia and which contains most of the dopaminergic neurons. The evaluation of the nanoparticles' prevention/rescue effect was performed via the measurement of the extracellular electrical activity of the co-culture of neurons plated on Microelectrode Array (MEA) chips. […]
Midbrain and frontal cortex tissue was harvested from embryonic day 14.5 chr:NMRI mice (Charles River). […] Tissue was dissociated by enzymatic digestion (133.3 Kunitz units/ml DNase; 10 Units/ml Papain) and mechanical trituration, counted, vitality controlled, and plated in a 20 μl drop of DMEM containing laminin (10 μg/ml), 10% fetal bovine serum and 10% horse serum on MEAs. Cultures on MEAs were incubated at 37° C. in a 10% CO2 atmosphere until ready for use. […]
At day 21, 120 minutes of neuronal activity were recorded, and 30 minutes of stable activity were analyzed (FIG. 6). […]
Each unit represents the activity originating from one neuron recorded at one electrode. […]

Consider `COc1cc2c(cc1OC)C(=O)C(CC1CCN(Cc3ccccc3)CC1)C2` (stereo not shown) [Donepezil, donepezil], for which the “Effect Score” value in test [1] (Abeta 1-42 100 nM at T0, nanoparticles (800 μM; [BaTiO3]=2000 μM) or donepezil 300 nM at T0+4 h, Control=0, Abeta group=1, 15 of 204 parameters) is on record as 0.46. The molecule also registered a Rescue efficacy in test [1] (same treatment as Effect Score, Control set at 100%, Abeta group 0%) of 54%.

B1: GDNF: glial cell-derived neurotrophic factor, neuroprotector used as reference (protein, UniProt P39905 78-211, looked up)
Glial cell line-derived …: SPDKQMAVLPRRERNRQAAAANPENSRGKGRRGQRGKNRGCVLTAIHLNVTDLGLGYETKEELIFRYCSGSCDAAETTYDKILKNLSRNRRLVSDKVGQACCRPIAFDDDLSFLDDNLVYHILRKHSAKRCGCI
As for B1, in test [2] (nanoparticles ([Au] or [Si]=800 μM; [BaTiO3]=2000 μM) or GDNF 20 ng/ml at day 7, MPP+ 20 μM at day 8, recording at day 21, Control=0, MPP+ group=1, 18 of 204 parameters), the “Effect Score” value is reported as 0.44. In test [2] (same treatment as Effect Score, Control set at 100%, MPP+ group 0%), this molecule displayed a Prevention/rescue efficacy of 56%.
